Measured values reported in PMC9411704, “Assessment of the Carcinogenic Potential of Pretomanid in Transgenic Tg.rasH2 Mice” (International Journal of Toxicology, 2022).
Read-outs that look alike come from different tables or passages of the source.

Tested on: Tg.rasH2 mice
Details: for Incidence of lung adenoma, multiple / Incidence of lung adenoma, single / Incidence of lung carcinoma / Incidence of lung tumors, combined / Incidence of thymus, thymoma / Incidence of urethra papilloma / Incidence of Harderian gland carcinoma / Incidence of Harderian gland adenoma / Incidence of hemangiosarcoma, combined / Incidence of hemangiosarcoma, multicentric (includes abdominal skin and thoracic wall) / Incidence of hemangiosarcoma, spleen / Incidence of hemangiosarcoma, uterus / Incidence of hemangiosarcoma, vagina / Survival rate / Incidence of hemangiosarcoma, kidney / Incidence of hemangiosarcoma, spinal cord, lumbar: 26 weeks
Experimental: The vehicle was 0.5% carboxymethylcellulose (CMC) with 0.1% Tween 80 (v/v). The vehicle and pretomanid formulations were administered to mice by oral gavage once daily at a dosing volume of 10 mL/kg. Individual dose volumes were calculated based on each animal’s most recently recorded body weight. The dose formulations were magnetically stirred at room temperature for at least 30 minutes prior to and during dosing. The positive control was urethane in 0.9% sodium chloride and was administered via intraperitoneal injection for a total of three times. The positive control formulation was allowed to stand at room temperature for at least 30 minutes and inverted several times prior to dose administration. Aliquots (0.5 to 1.0 mL) were collected from the top, bottom, and middle of the first (week 1), interim (week 13), and last (week 25) pretomanid dose formulations to assess the accuracy of the concentration and/or homogeneity.
Male and female Tg.rasH2 [CByB6F1-Tg(HRAS)2Jic (+/−hemizygous c-Ha-ras)] mice (n = 110/sex) approximately 5 weeks of age were assigned to the main cohort groups to assess carcinogenicity. Male and female wild type CByB6F1 mice [CByB6F1-Tg(HRAS)2Jic (−/−homozygous c-Ha-ras)] (n = 34/sex) approximately 6 weeks of age were assigned to the cohort of mice used to assess the toxicokinetics of pretomanid and its M50 metabolite. […] All mice were obtained from Taconic Biosciences (Germantown, NY). The supplier verified that the mice were murine pathogen-free and females were nulliparous and non-pregnant. At the time of dosing initiation (Day 1), the toxicokinetic mice were approximately 8 weeks of age. On Day 1 of the study, the body weights of the main cohort mice ranged from 19.2 to 25.9 grams (males) and from 15.9 to 20.4 grams (females), and the body weights of the TK cohort mice ranged from 23.4 to 30.2 grams (males) and from 17.6 to 23.5 grams (females).
This study assessed the carcinogenic potential of pretomanid following repeated oral gavage administration once daily for 26 weeks in hemizygous Tg.rasH2 [CByB6F1-Tg(HRAS)2Jic (+/− hemizygous c-Ha-ras)] mice. This study also evaluated the TK profile of pretomanid and metabolite M50 in wild-type CByB6F1 [CByB6F1-Tg(HRAS)2Jic (−/−homozygous c-Ha-ras)] mice. The study was conducted under GLP regulations.
For carcinogenicity assessment (main cohort), 25 mice/sex were included in the vehicle control and pretomanid-treated groups. At the time of dosing initiation (Day 1), the main cohort mice used for assessing carcinogenicity were approximately 7 weeks of age and weighed between 15.9 to 20.4 g (females) and 19.2 to 25.9 g (males). Male groups (Groups 2, 4, and 6) received pretomanid in vehicle at doses of 5, 15, and 40 mg/kg/day, respectively. Female groups (Groups 3, 5, and 7) received pretomanid in vehicle at doses of 10, 30, and 80 mg/kg/day. Positive control mice (n = 10/sex) were included in the main cohort and received three intraperitoneal injections of urethane in saline (1000 mg/kg/injection) on Days 1, 3, and 5. The test and control articles were administered at a dose volume of 10 mL/kg body weight.
Clinical signs, body weights, and food consumption were assessed for the main cohort animals to monitor animal health and any potential toxicity from pretomanid administration. In-life measurements were recorded in Provantis™ Version 9.4.6.3 (Instem, Philadelphia, PA).
All animals, including those in the TK cohort, were observed twice daily for morbidity and mortality. For animals in the main cohort, cage side observations were performed on the day of dosing within 2 hours after the last animal in each group was dosed (Days 1, 3, and 5 for positive control animals).

[1] = female, Tg.rasH2 [CByB6F1-Tg(HRAS)2Jic (+/- hemizygous c-Ha-ras)], mouse, in vivo, po, 10 mg/kg/day
[2] = female, Tg.rasH2 [CByB6F1-Tg(HRAS)2Jic (+/- hemizygous c-Ha-ras)], mouse, in vivo, po, 30 mg/kg/day
[3] = female, Tg.rasH2 [CByB6F1-Tg(HRAS)2Jic (+/- hemizygous c-Ha-ras)], mouse, in vivo, po, 80 mg/kg/day
[4] = female, Tg.rasH2 [CByB6F1-Tg(HRAS)2Jic, hemizygous c-Ha-ras], mouse, in vivo, po, 10 mg/kg/day
[5] = female, Tg.rasH2 [CByB6F1-Tg(HRAS)2Jic, hemizygous c-Ha-ras], mouse, in vivo, po, 30 mg/kg/day
[6] = female, Tg.rasH2 [CByB6F1-Tg(HRAS)2Jic, hemizygous c-Ha-ras], mouse, in vivo, po, 80 mg/kg/day
[7] = male, Tg.rasH2 [CByB6F1-Tg(HRAS)2Jic (+/- hemizygous c-Ha-ras)], mouse, in vivo, po, 5 mg/kg/day
[8] = male, Tg.rasH2 [CByB6F1-Tg(HRAS)2Jic (+/- hemizygous c-Ha-ras)], mouse, in vivo, po, 15 mg/kg/day
[9] = male, Tg.rasH2 [CByB6F1-Tg(HRAS)2Jic (+/- hemizygous c-Ha-ras)], mouse, in vivo, po, 40 mg/kg/day
[10] = male, Tg.rasH2 [CByB6F1-Tg(HRAS)2Jic, hemizygous c-Ha-ras], mouse, in vivo, po, 5 mg/kg/day
[11] = male, Tg.rasH2 [CByB6F1-Tg(HRAS)2Jic, hemizygous c-Ha-ras], mouse, in vivo, po, 15 mg/kg/day
[12] = male, Tg.rasH2 [CByB6F1-Tg(HRAS)2Jic, hemizygous c-Ha-ras], mouse, in vivo, po, 40 mg/kg/day

O=[N+]([O-])c1cn2c(n1)OC[C@@H](OCc1ccc(OC(F)(F)F)cc1)C2 [Pretomanid, (6S)-2-nitro-6-{[4-(trifluoromethoxy)benzyl]oxy}-6,7-dihydro-5H-imidazo[2,1-b][1,3]oxazine]
Early death: cause of death (Group 3F, female, 10 mg/kg/d): Multicentric hemangiosarcoma
Early death: day of death (Group 3F, female, 10 mg/kg/d): 184
Early death: interpretation (Group 3F, female, 10 mg/kg/d): Natural death
Early death: cause of death (Group 5F, female, 30 mg/kg/d): Caught in feeder
Early death: day of death (Group 5F, female, 30 mg/kg/d): 7
Early death: interpretation (Group 5F, female, 30 mg/kg/d): Accidental
Early death: interpretation (Group 7F, female, 80 mg/kg/d (two animals)): Natural death
Incidence of lung adenoma, multiple [1]: 0%
Incidence of lung adenoma, single [1]: 0%
Incidence of lung carcinoma [1]: 0%
Incidence of lung tumors, combined [1]: 0%
Incidence of thymus, thymoma [1]: 4%
Incidence of urethra papilloma [1]: 0%
Incidence of Harderian gland carcinoma [2]: 0%
Incidence of lung adenoma, multiple [2]: 0%
Incidence of lung adenoma, single [2]: 4%
Incidence of lung carcinoma [2]: 0%
Incidence of lung tumors, combined [2]: 4%
Incidence of thymus, thymoma [2]: 0%
Incidence of urethra papilloma [2]: 0%
Incidence of Harderian gland carcinoma [3]: 8%
Incidence of lung adenoma, multiple [3]: 0%
Incidence of lung adenoma, single [3]: 0%
Incidence of lung carcinoma [3]: 8%
Incidence of lung tumors, combined [3]: 8%
Incidence of thymus, thymoma [3]: 0%
Incidence of urethra papilloma [3]: 4%
Incidence of Harderian gland adenoma [4]: 0%
Incidence of Harderian gland carcinoma [4]: 4%
Incidence of hemangiosarcoma, combined [4]: 8%
Incidence of hemangiosarcoma, multicentric (includes abdominal skin and thoracic wall) [4]: 4%
Incidence of hemangiosarcoma, spleen [4]: 0%
Incidence of hemangiosarcoma, uterus [4]: 4%
Incidence of hemangiosarcoma, vagina [4]: 0%
Incidence of Harderian gland adenoma [5]: 8%
Incidence of hemangiosarcoma, combined [5]: 4%
Incidence of hemangiosarcoma, multicentric (includes abdominal skin and thoracic wall) [5]: 0%
Incidence of hemangiosarcoma, spleen [5]: 0%
Incidence of hemangiosarcoma, uterus [5]: 0%
Incidence of hemangiosarcoma, vagina [5]: 4%
Incidence of Harderian gland adenoma [6]: 0%
Incidence of hemangiosarcoma, combined [6]: 8%
Incidence of hemangiosarcoma, multicentric (includes abdominal skin and thoracic wall) [6]: 0%
Incidence of hemangiosarcoma, spleen [6]: 8%
Incidence of hemangiosarcoma, uterus [6]: 0%
Incidence of hemangiosarcoma, vagina [6]: 0%
Survival rate (females, high-dose (80 mg/kg/day)): 92%
Survival rate (females, low-dose (10 mg/kg/day)): 96%
Survival rate (females, mid-dose (30 mg/kg/day)): 100%
Incidence of Harderian gland adenoma [7]: 4%
Incidence of Harderian gland carcinoma [7]: 0%
Incidence of hemangiosarcoma, combined [7]: 4%
Incidence of hemangiosarcoma, kidney [7]: 4%
Incidence of hemangiosarcoma, spinal cord, lumbar [7]: 0%
Incidence of hemangiosarcoma, spleen [7]: 0%
Incidence of Harderian gland adenoma [8]: 0%
Incidence of hemangiosarcoma, combined [8]: 0%
Incidence of hemangiosarcoma, kidney [8]: 0%
Incidence of hemangiosarcoma, spinal cord, lumbar [8]: 0%
Incidence of hemangiosarcoma, spleen [8]: 0%
Incidence of Harderian gland adenoma [9]: 0%
Incidence of hemangiosarcoma, combined [9]: 12%
Incidence of hemangiosarcoma, kidney [9]: 0%
Incidence of hemangiosarcoma, spinal cord, lumbar [9]: 0%
Incidence of hemangiosarcoma, spleen [9]: 12%
Incidence of lung adenoma, multiple [10]: 0%
Incidence of lung adenoma, single [10]: 20%
Incidence of lung carcinoma [10]: 0%
Incidence of lung tumors, combined [10]: 20%
Incidence of Harderian gland carcinoma [11]: 0%
Incidence of lung adenoma, multiple [11]: 0%
Incidence of lung adenoma, single [11]: 8%
Incidence of lung carcinoma [11]: 0%
Incidence of lung tumors, combined [11]: 8%
Incidence of Harderian gland carcinoma [12]: 4%
Incidence of lung adenoma, multiple [12]: 0%
Incidence of lung adenoma, single [12]: 4%
Incidence of lung carcinoma [12]: 0%
Incidence of lung tumors, combined [12]: 4%
Survival rate (males, high-dose (40 mg/kg/day)): 100%
Survival rate (males, low-dose (5 mg/kg/day)): 100%
Survival rate (males, mid-dose (15 mg/kg/day)): 100%
Incidence of hemangiosarcoma vs vehicle control (mouse, in vivo): did not significantly increase
Incidence of lung tumors vs vehicle control (mouse, in vivo): did not significantly increase
Incidence of non-vascular and non-pulmonary tumors (mouse, in vivo): did not significantly increase
Non-neoplastic microscopic findings (mouse, in vivo): did not produce non-neoplastic microscopic findings
Mean food consumption from Day 1 to 183 vs vehicle control (mouse, in vivo, 30 mg/kg/day): significantly increased
Clinical signs of toxicity (mouse, in vivo, po): did not produce clinical signs of toxicity
Effect on food consumption (mouse, in vivo, po): did not affect food consumption
